Results published in patent US8372865B2, “Dihydropyridone amides as P2X7 modulators” (Roche Palo Alto LLC, priority 2008, dated 2013).

Molecular target: T1, P2X7 receptor (UniProt Q99572)
T1 sequence (Q99572 1-595): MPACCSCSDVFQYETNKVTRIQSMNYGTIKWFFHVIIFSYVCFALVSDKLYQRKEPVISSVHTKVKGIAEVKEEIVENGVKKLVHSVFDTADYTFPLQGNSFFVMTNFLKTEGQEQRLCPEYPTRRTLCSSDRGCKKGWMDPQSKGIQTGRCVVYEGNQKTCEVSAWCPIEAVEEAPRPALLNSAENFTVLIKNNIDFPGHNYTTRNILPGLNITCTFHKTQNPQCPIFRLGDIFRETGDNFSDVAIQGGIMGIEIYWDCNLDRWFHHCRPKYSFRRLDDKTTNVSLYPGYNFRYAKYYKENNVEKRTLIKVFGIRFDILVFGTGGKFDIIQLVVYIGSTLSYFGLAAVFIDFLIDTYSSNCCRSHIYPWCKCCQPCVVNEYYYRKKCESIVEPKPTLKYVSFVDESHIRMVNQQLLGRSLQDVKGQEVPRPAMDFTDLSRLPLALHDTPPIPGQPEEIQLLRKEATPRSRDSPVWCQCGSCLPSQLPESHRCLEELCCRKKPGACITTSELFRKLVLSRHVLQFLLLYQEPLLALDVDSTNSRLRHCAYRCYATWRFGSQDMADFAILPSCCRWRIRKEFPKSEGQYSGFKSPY
Assay: pKi of Table 1 (assay not stated)
Type: cell-based
Method: Intracellular Calcium Flux (FLIPR) Assay
Stock solutions of compounds were prepared from powders as a 10 mM DMSO stock solution. These solutions were stored at RT during the two week period of these experiments to prevent freeze-thaw of the DMSO stocks. The DMSO stocks were added to the appropriate assay buffer at a concentration of 10 μM, and then diluted serially to the final concentrations that were tested. […] The aqueous solutions of compounds as well as ATP (Sigma A7699) and BzATP (Sigma B6396) were prepared fresh for each day of experiment.
1321N1 cells stably expressing the full length human P2X7 gene (1321N1-hP2X7) and HEK293 cells stably expressing the full length rat P2X7 gene (HEK293-rP2X7) were obtained from the Roche Cell Culture Facility. 1321N1-hP2X7 cells were grown in Dulbecco's Modified Eagle's Medium (DMEM) high glucose supplemented with 10% FBS and 250 μg/mL G418. HEK293-rP2X7 cells were grown in DMEM/F-12 supplemented with 10% FBS, 1 mM CaCl2, 2 mM MgCl2, 2 mM L-Glutamine and 500 μg/ml G418. Cells were split such that they never became>70% confluent.
On the day prior to the experiment, 1321N1-hP2X7 or HEK293-rP2X7 cells were released into suspension with calcium-free PBS+Versene and washed by centrifugation with calcium-free PBS to remove the Versene. Cells were resuspended in growth medium at a density of 2.5×10^5 cells/mL and seeded into black walled, clear bottom 96 well plates (50,000 cells/well) approximately 18 hr prior to intracellular calcium flux experiments.
On the day of the experiment, plates were washed with FLIPR buffer (calcium- and magnesium-free Hank's Balanced Salt Solution (HBSS) supplemented with 10 mM Hepes, 2.5 mM probenecid and 2 mM calcium chloride) using a BIO-TEK 96 channel plate washer and incubated with […] fluo-3 dye at 37° C. for one hr. The dye was then removed by plate washing and the cells were allowed to equilibrate for 20 min at room temperature with antagonist or vehicle (FLIPR buffer). Agonist (100 μM BzATP final concentration for hP2X7; 5 μM BzATP final concentration or rP2X7) was added online with the FLIPR and fluorescence measurements made at 1 sec intervals for 60 sec followed by 3 sec intervals for a further 4 min (5 min total). A final addition of 5 μM ionomycin was made and the maximal BzATP-evoked fluorescence normalized to the maximal ionomycin-evoked fluorescence.

## Cc1ccc2c(NC(=O)C3=CNC(=O)C[C@H]3c3ccc(F)cc3)c(C)ccc2n1 [Compound 49, (S)-4-(4-Fluoro-phenyl)-6-oxo-1,4,5,6-tetrahydro-pyridine-3-carboxylic acid (2,6-dimethyl-quinolin-5-yl)-amide]
  pKi: 7.8567

## CN1C=C(C(=O)Nc2cccc3c(=O)n(CCO)ccc23)[C@H](c2ccc(F)cc2)CC1=O [Compound 50, (S)-4-(4-Fluoro-phenyl)-1-methyl-6-oxo-1,4,5,6-tetrahydro-pyridine-3-carboxylic acid [2-(2-hydroxy-ethyl)-1-oxo-1,2-dihydro-isoquinolin-5-yl]-amide]
  pKi: 7.04

## Cc1ccc2c(=O)n(C)ccc2c1NC(=O)C1=CNC(=O)C[C@H]1c1ccc(F)cc1 [Compound 51, (S)-4-(4-Fluoro-phenyl)-6-oxo-1,4,5,6-tetrahydro-pyridine-3-carboxylic acid (2,6-dimethyl-1-oxo-1,2-dihydro-isoquinolin-5-yl)-amide]
  pKi: 7.4375

## Cc1ccc2c(=O)n(C)ccc2c1NC(=O)C1=CN(C)C(=O)C[C@H]1c1ccc(F)cc1 [Compound 52, (S)-4-(4-Fluoro-phenyl)-1-methyl-6-oxo-1,4,5,6-tetrahydro-pyridine-3-carboxylic acid (2,6-dimethyl-1-oxo-1,2-dihydro-isoquinolin-5-yl)-amide]
  pKi: 7.45

## Cc1ccc2c(C)nccc2c1NC(=O)C1=CN(C)C(=O)C[C@H]1c1ccc(F)cc1 [Compound 53, (S)-4-(4-Fluoro-phenyl)-1-methyl-6-oxo-1,4,5,6-tetrahydro-pyridine-3-carboxylic acid (1,6-dimethyl-isoquinolin-5-yl)-amide]
  pKi: 6.045

## Cn1ccc2c(NC(=O)C3=CNC(=O)C[C@H]3c3ccc(F)cc3)cccc2c1=O [Compound 58, (S)-4-(4-Fluoro-phenyl)-6-oxo-1,4,5,6-tetrahydro-pyridine-3-carboxylic acid (2-methyl-1-oxo-1,2-dihydro-isoquinolin-5-yl)-amide]
  pKi: 7.56
